# In patent US20160375006A1, “USES OF PARALOG-SELECTIVE INHIBITORS OF GSK3 KINASES” (priority 2012, published 2016):
# Read-outs that look alike come from different tables or passages of the source.
# Tests used:
# [1] = molecular target: ABL(E255K) (Homo sapiens, UniProt P00519, E255K)
# Method: (§1) This was completed utilizing one of two assays depending on the kinase being examined.
# (§2) A solution of IMAP binding reagent (IMAP Screening Express kit; Molecular Devices) (60 μL) was added to each well and incubated for 30 minutes.
# (§3) A solution of termination buffer (QuickScout Screening assist MSA; Carna Biosciences) (60 μL) was added to each well. The entire reaction mixture was then applied to a LabChip3000 system (Caliper Life Science) and the product and substrate peptide peaks were separated and quantified.
# [2] = molecular target: EPHA3 (Homo sapiens, UniProt P29320)
# Method: as §1, §2, §3
# (§4) The assay utilized was identical to that of the single point inhibitory activity determination (MSA) but run in dose response. […] A solution of termination buffer (QuickScout Screening assist MSA; Carna Biosciences) (60 μL) was added to each well. The entire reaction mixture was then applied to a LabChip3000 system (Caliper Life Science) and the product and substrate peptide peaks were separated and quantified.
# [3] = molecular target: IRAK4 (Homo sapiens, UniProt Q9NWZ3)
# Method: as §1, §2, §3, §4
# [4] = molecular target: SRPK1 (Homo sapiens, UniProt Q96SB4)
# Method: as §1, §2, §3, §4
# [5] = molecular target: CK1ε (Homo sapiens, UniProt P49674)
# Method: as §1, §2, §3
# [6] = molecular target: MARK3 (Homo sapiens, UniProt P27448)
# Method: as §1, §2, §3, §4
# [7] = molecular target: PKCθ (Homo sapiens, UniProt Q04759)
# Method: as §1, §2, §3
# [8] = molecular target: MGC42105 (Homo sapiens, UniProt Q8IY84)
# Method: as §1, §2, §3, §4
# [9] = molecular target: GSK3β (Homo sapiens, UniProt P49841)
# Method: as §1, §2, §3, §4
# [10] = molecular target: NDR1 (Homo sapiens, UniProt Q15208)
# Method: as §1, §2, §3, §4
# [11] = molecular target: ABL(T315I) (Homo sapiens, UniProt P00519, T315I)
# Method: as §1, §2, §3, §4
# [12] = molecular target: NPM1-ALK (Homo sapiens, UniProt Q9UM73)
# Method: as §1, §2, §3
# [13] = molecular target: IGF1R (Homo sapiens, UniProt P08069)
# Method: as §1, §2, §3, §4
# [14] = molecular target: HER2 (Homo sapiens, UniProt P04626)
# Method: as §1, §2, §3, §4
# [15] = molecular target: CaMK2β (Homo sapiens, UniProt Q13554)
# Method: as §1, §2, §3, §4
# [16] = molecular target: SGK3 (Homo sapiens, UniProt Q96BR1)
# Method: as §1, §2, §3, §4
# [17] = molecular target: ARG (Homo sapiens, UniProt P42684)
# Method: as §1, §2, §3
# [18] = molecular target: CHK1 (Homo sapiens, UniProt O14757)
# Method: as §1, §2, §3, §4
# [19] = molecular target: PKCγ (Homo sapiens, UniProt P05129)
# Method: as §1, §2, §3, §4
# [20] = molecular target: FER (Homo sapiens, UniProt P16591)
# Method: as §1, §2, §3
# [21] = molecular target: p38δ (Homo sapiens, UniProt O15264)
# Method: as §1, §2, §3, §4
# [22] = molecular target: MARK1 (Homo sapiens, UniProt Q9P0L2)
# Method: as §1, §2, §3, §4
# [23] = molecular target: MLK3_Cascade (Homo sapiens, UniProt Q16584)
# Method: as §1, §2, §3, §4
# [24] = molecular target: LTK (Homo sapiens, UniProt P29376)
# Method: as §1, §2, §3, §4
# [25] = molecular target: NEK4 (Homo sapiens, UniProt P51957)
# Method: as §1, §2, §3, §4
# [26] = molecular target: PKACβ (Homo sapiens, UniProt P22694)
# Method: as §1, §2, §3, §4
# [27] = molecular target: DYRK2 (Homo sapiens, UniProt Q92630)
# Method: as §1, §2, §3, §4
# [28] = molecular target: MAP3K5_Cascade (Homo sapiens, UniProt Q99683)
# Method: as §1, §2, §3, §4
# [29] = molecular target: JNK2 (Homo sapiens, UniProt P45984)
# Method: as §1, §2, §3, §4
# [30] = molecular target: PDGFRβ (Homo sapiens, UniProt P09619)
# Method: as §1, §2, §3, §4
# [31] = molecular target: TRKA (Homo sapiens, UniProt P04629)
# Method: as §1, §2, §3, §4
# [32] = molecular target: KIT(D816V) (Homo sapiens, UniProt P10721, D816V)
# Method: as §1, §2, §3, §4
# [33] = molecular target: FLT3 (Homo sapiens, UniProt P36888)
# [34] = molecular target: CaMK2γ (Homo sapiens, UniProt Q13555)
# Method: as §1, §2, §3, §4
# [35] = molecular target: SYK (Homo sapiens, UniProt P43405)
# Method: as §1, §2, §3, §4
# [36] = molecular target: ROS (Homo sapiens, UniProt P08922)
# Method: as §1, §2, §3, §4
# [37] = molecular target: MST2 (Homo sapiens, UniProt Q13188)
# Method: as §1, §2, §3
# [38] = molecular target: IKKα (Homo sapiens, UniProt O15111)
# Method: as §1, §2, §3, §4
# [39] = molecular target: DYRK1B (Homo sapiens, UniProt Q9Y463)
# Method: as §1, §2, §3, §4
# [40] = molecular target: SPHK2 (Homo sapiens, UniProt Q9NRA0)
# Method: as §1, §2, §3, §4
# [41] = molecular target: RSK1 (Homo sapiens, UniProt Q15418)
# Method: as §1, §2, §3
# GSK3β, sequence (P49841 whole entry): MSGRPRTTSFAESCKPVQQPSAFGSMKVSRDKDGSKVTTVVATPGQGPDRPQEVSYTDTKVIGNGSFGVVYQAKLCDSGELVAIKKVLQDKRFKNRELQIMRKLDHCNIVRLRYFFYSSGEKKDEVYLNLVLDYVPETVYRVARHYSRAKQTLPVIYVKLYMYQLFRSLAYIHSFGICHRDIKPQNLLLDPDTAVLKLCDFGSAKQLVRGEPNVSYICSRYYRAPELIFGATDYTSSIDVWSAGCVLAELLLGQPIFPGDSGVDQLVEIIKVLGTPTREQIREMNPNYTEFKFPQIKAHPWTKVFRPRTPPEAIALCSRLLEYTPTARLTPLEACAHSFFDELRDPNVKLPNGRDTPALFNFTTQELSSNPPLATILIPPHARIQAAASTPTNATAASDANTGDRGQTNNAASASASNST
# CaMK2β, sequence (Q13554 whole entry): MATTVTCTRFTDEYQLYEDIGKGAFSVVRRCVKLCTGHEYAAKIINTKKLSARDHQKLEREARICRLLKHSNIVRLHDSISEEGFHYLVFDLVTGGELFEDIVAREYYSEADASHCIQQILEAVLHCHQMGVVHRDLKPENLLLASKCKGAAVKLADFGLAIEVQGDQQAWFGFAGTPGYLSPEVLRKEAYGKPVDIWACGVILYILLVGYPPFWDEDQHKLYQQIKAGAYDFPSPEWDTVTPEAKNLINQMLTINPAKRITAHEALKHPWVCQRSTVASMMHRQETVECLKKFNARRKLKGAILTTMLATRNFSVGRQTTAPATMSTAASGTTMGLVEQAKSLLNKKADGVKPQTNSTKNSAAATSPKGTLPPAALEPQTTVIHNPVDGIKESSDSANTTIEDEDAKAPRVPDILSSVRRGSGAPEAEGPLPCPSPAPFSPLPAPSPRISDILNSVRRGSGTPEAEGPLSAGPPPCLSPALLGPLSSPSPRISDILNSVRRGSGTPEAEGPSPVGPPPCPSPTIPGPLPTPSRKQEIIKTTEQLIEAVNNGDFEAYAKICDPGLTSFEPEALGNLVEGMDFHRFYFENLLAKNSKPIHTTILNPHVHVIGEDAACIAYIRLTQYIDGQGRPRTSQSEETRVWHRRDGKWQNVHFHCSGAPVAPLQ
# FLT3, sequence (P36888 27-993): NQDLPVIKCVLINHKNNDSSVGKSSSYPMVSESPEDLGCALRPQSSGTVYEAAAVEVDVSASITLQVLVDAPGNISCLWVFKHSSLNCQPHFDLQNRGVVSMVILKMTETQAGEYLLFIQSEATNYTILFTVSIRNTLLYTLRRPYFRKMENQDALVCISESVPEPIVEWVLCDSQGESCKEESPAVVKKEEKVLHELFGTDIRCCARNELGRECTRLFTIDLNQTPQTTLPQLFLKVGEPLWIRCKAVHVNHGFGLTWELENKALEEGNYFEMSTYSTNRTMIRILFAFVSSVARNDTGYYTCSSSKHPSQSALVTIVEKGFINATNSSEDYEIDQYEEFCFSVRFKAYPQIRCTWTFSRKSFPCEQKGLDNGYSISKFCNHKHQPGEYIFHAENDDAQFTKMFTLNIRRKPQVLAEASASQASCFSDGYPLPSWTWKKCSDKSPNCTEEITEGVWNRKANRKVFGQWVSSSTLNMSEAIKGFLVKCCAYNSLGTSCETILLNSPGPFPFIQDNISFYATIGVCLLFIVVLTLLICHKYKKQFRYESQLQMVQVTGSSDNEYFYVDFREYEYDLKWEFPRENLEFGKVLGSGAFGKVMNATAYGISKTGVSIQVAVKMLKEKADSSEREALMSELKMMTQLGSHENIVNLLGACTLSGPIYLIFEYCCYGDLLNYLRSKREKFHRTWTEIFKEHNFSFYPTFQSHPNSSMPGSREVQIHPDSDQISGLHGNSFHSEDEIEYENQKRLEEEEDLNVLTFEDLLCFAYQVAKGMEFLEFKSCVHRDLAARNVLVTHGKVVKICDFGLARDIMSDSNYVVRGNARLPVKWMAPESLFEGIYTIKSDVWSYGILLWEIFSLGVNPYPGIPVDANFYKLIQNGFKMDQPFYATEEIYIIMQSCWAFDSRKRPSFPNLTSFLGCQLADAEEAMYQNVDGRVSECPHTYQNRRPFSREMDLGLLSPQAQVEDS
# MST2, sequence (Q13188 whole entry): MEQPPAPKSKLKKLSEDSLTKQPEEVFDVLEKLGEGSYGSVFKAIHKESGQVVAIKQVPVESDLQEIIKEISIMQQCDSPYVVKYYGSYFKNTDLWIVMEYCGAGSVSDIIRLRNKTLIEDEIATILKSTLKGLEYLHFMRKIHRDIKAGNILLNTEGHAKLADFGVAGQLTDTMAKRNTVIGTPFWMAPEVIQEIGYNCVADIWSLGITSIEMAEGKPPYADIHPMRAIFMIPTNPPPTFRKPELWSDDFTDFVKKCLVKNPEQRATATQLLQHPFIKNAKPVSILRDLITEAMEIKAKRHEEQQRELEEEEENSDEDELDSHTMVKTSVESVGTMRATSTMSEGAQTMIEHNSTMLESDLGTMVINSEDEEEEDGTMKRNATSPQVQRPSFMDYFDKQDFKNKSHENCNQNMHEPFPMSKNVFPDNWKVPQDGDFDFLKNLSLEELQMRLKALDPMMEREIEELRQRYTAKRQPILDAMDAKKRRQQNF
# JNK2, sequence (P45984 whole entry): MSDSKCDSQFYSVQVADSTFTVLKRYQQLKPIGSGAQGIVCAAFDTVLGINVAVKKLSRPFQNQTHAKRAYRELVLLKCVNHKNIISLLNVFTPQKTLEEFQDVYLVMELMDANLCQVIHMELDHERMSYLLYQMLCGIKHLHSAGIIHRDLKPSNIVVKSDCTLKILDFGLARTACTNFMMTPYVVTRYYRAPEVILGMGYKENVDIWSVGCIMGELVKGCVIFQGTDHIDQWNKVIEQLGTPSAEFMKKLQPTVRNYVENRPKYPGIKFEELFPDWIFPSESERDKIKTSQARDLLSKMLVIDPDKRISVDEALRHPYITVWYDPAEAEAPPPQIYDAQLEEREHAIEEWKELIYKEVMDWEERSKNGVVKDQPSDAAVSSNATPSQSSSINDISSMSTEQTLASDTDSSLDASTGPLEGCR
# EPHA3, sequence (P29320 21-983): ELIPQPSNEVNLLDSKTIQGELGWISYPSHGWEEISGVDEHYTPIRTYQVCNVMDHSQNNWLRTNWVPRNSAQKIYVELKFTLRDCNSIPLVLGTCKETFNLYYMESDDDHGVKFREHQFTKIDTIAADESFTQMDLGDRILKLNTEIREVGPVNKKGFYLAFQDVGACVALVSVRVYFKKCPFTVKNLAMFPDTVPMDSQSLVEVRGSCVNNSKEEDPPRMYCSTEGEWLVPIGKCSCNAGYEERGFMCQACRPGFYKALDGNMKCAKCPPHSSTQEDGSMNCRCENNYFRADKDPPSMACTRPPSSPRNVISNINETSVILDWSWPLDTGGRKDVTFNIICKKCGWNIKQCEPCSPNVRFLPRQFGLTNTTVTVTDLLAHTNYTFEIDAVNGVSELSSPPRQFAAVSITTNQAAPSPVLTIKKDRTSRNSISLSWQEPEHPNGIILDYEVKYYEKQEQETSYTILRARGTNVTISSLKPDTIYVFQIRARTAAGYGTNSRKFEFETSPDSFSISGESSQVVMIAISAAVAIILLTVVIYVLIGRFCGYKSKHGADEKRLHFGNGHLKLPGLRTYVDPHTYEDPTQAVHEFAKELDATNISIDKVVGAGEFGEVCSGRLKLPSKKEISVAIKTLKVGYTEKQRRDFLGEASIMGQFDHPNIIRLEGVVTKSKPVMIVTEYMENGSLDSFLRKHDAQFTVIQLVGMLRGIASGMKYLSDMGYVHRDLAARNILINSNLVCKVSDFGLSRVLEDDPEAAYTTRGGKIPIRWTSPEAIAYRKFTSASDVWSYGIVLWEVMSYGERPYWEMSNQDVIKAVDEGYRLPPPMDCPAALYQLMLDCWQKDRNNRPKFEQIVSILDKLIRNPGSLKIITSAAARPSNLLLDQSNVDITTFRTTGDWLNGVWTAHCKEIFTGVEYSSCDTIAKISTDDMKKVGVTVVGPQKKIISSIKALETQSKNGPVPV
# NPM1-ALK, sequence (Q9UM73 with tags, fused parts or gaps): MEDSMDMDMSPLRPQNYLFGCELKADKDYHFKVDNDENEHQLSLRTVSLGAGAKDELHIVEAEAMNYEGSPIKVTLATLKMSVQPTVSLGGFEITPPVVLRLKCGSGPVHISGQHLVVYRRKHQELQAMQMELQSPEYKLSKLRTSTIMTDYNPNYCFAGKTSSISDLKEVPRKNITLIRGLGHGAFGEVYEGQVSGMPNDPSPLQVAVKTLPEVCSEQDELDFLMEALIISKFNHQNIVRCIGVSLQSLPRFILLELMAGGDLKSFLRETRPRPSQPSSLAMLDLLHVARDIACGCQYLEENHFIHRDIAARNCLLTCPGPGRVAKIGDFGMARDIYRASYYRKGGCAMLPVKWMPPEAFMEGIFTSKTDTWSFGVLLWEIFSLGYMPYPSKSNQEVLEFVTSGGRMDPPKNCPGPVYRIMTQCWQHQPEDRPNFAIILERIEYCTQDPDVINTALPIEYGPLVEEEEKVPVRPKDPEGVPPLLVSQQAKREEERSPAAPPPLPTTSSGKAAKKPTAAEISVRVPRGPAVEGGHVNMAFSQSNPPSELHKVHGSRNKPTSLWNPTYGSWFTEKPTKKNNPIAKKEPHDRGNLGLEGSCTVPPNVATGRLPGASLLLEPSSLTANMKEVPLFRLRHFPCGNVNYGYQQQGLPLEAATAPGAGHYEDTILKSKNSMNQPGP
# CK1ε, sequence (P49674 whole entry): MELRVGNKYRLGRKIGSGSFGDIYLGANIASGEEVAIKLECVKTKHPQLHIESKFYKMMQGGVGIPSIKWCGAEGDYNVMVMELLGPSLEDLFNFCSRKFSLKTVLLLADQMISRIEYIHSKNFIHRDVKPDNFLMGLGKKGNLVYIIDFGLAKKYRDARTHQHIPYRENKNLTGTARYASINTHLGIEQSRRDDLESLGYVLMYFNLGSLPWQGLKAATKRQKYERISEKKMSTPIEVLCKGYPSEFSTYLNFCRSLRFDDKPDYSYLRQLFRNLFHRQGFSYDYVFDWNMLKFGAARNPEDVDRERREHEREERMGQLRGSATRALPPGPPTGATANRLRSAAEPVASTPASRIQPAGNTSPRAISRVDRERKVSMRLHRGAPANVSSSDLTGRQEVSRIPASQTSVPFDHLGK
smiles,measurement,setting,value
CC[C@@]1(c2ccccc2)C2=C(CC(C)(C)CC2=O)Nc2n[nH]cc21 [BRD0705],% Inhibition at 10 μM,[1],−0.3%
same,% Inhibition at 10 μM,[2],25.2%
same,% Inhibition at 10 μM,[3],−7.4%
same,% Inhibition at 10 μM,[4],−2.0%
same,% Inhibition at 10 μM,[5],−0.4%
same,% Inhibition at 10 μM,[6],−5.3%
same,% Inhibition at 10 μM,[7],−12.0%
same,% Inhibition at 10 μM,[8],−9.9%
same,% Inhibition at 10 μM,[9],96.5%
same,IC50,[9]; read-out: IC50 GSK3β,488 nM
same,% Inhibition at 10 μM,[10],−4.8%
same,% Inhibition at 10 μM,[11],0.7%
same,% Inhibition at 10 μM,[12],3.7%
same,% Inhibition at 10 μM,[13],−2.5%
same,% Inhibition at 10 μM,[14],−11.1%
same,% Inhibition at 10 μM,[15],−9.0%
same,% Inhibition at 10 μM,[16],−1.8%
same,% Inhibition at 10 μM,[17],1.1%
same,% Inhibition at 10 μM,[18],2.9%
same,% Inhibition at 10 μM,[19],−8.0%
same,% Inhibition at 10 μM,[20],1.7%
same,% Inhibition at 10 μM,[21],2.4%
same,% Inhibition at 10 μM,[22],3.1%
same,% Inhibition at 10 μM,[23],4.6%
same,% Inhibition at 10 μM,[24],−3.6%
same,% Inhibition at 10 μM,[25],−5.1%
same,% Inhibition at 10 μM,[26],−7.7%
same,% Inhibition at 10 μM,[27],−3.0%
same,% Inhibition at 10 μM,[28],1.9%
same,% Inhibition at 10 μM,[29],−2.5%
same,% Inhibition at 10 μM,[30],0.3%
same,% Inhibition at 10 μM,[31],2.9%
same,% Inhibition at 10 μM,[32],3.5%
same,% Inhibition at 10 μM,[33],25.0%
same,% Inhibition at 10 μM,[34],−4.7%
same,% Inhibition at 10 μM,[35],0.6%
same,% Inhibition at 10 μM,[36],31.3%
same,% Inhibition at 10 μM,[37],−3.4%
same,% Inhibition at 10 μM,[38],−0.2%
same,% Inhibition at 10 μM,[39],−6.1%
same,% Inhibition at 10 μM,[40],−3.8%
same,% Inhibition at 10 μM,[41],−6.4%
CC(C)(C)Cc1[nH]nc2c1[C@](C)(c1ccccc1)C1=C(CC(C)(C)CC1=O)N2 [BRD3731],% Inhibition 10 μM,[1]; 10 μM,8.3%
same,% Inhibition 10 μM,[2]; 10 μM,3.0%
same,% Inhibition 10 μM,[3]; 10 μM,0.1%
same,% Inhibition 10 μM,[4]; 10 μM,5.0%
same,% Inhibition 10 μM,[5]; 10 μM,28.0%
same,% Inhibition 10 μM,[6]; 10 μM,−2.1%
same,% Inhibition 10 μM,[7]; 10 μM,12.1%
same,% Inhibition 10 μM,[8]; 10 μM,−2.4%
same,% Inhibition 10 μM,[9],100.7%
same,IC50,[9],27 nM
same,% Inhibition 10 μM,[10]; 10 μM,−3.7%
same,% Inhibition 10 μM,[11]; 10 μM,−2.4%
same,% Inhibition 10 μM,[12]; 10 μM,−2.1%
same,% Inhibition 10 μM,[13]; 10 μM,−1.5%
same,% Inhibition 10 μM,[14]; 10 μM,3.8%
same,% Inhibition 10 μM,[15]; 10 μM,0.3%
same,% Inhibition 10 μM,[16]; 10 μM,−5.2%
same,% Inhibition 10 μM,[17]; 10 μM,6.4%
same,% Inhibition 10 μM,[18]; 10 μM,−16.4%
same,% Inhibition 10 μM,[19]; 10 μM,5.0%
same,% Inhibition 10 μM,[20]; 10 μM,6.4%
same,% Inhibition 10 μM,[21]; 10 μM,−0.2%
same,% Inhibition 10 μM,[22]; 10 μM,9.3%
same,% Inhibition 10 μM,[23]; 10 μM,−0.8%
same,% Inhibition 10 μM,[24]; 10 μM,−3.5%
same,% Inhibition 10 μM,[25]; 10 μM,−4.8%
same,% Inhibition 10 μM,[26]; 10 μM,9.3%
same,% Inhibition 10 μM,[27]; 10 μM,4.1%
same,% Inhibition 10 μM,[28]; 10 μM,0.4%
same,% Inhibition 10 μM,[29]; 10 μM,−3.9%
same,% Inhibition 10 μM,[30]; 10 μM,3.1%
same,% Inhibition 10 μM,[31]; 10 μM,12.0%
same,% Inhibition 10 μM,[32]; 10 μM,−1.7%
same,% Inhibition 10 μM,[33]; 10 μM,13.8%
same,% Inhibition 10 μM,[34]; 10 μM,−1.2%
same,% Inhibition 10 μM,[35]; 10 μM,−11.0%
same,% Inhibition 10 μM,[36]; 10 μM,0.9%
same,% Inhibition 10 μM,[37]; 10 μM,1.5%
same,% Inhibition 10 μM,[38]; 10 μM,1.8%
same,% Inhibition 10 μM,[39]; 10 μM,2.0%
same,% Inhibition 10 μM,[40]; 10 μM,15.2%
same,% Inhibition 10 μM,[41]; 10 μM,23.4%
